{"source": "patent US11566002B2", "about": "“Substituted tetrahydrocyclopenta[C]pyrroles, substituted dihydropyrrolizines, analogues thereof, and methods using same” (priority 2018, dated 2023)"}
{"tested_on": "HBV rcDNA", "assay": "HepDE19 assay with bDNA quantitation of HBV rcDNA", "type": "cell-based, hepatitis B virus", "settings": "HepDE19 cells, Tet-free medium, 7 day-incubation, rcDNA measured by Quantigene 2.0 bDNA assay, top concentration 25 μM; read-out: DE-19 bDNA EC50", "procedure": "(§1) HepDE19 Assay with bDNA Quantitation of HBV rcDNA:\n(§2) HepDE19 cell culture system is a HepG2 (human hepatocarcinoma) derived cell line that supports HBV DNA replication and cccDNA formation in a tetracycline (Tet)-regulated manner and produces HBV rcDNA and a detectable reporter molecule dependent on the production and maintenance of cccDNA (Guo, et al., 2007, J. Virol. 81:12472-12484).\n(§3) HepDE19 (50,000 cells/well) were plated in 96-well collagen-coated tissue-culture treated microtiter plates in DMEM/F12 medium supplemented with 10% fetal bovine serum, 1% penicillin-streptomycin and 1 μg/mL tetracycline and incubated in a humidified incubator at 37° C. and 5% CO2 overnight. Next day, the cells were switched to fresh medium without tetracycline and incubated for 4 hours at 37° C. and 5% CO2. The cells were treated with fresh Tet-free medium with compounds at concentrations starting at 25 μM and a serial, ½ log, 8-point, titration series in duplicate. The final DMSO concentration in the assay was 0.5%. The plates were incubated for 7 days in a humidified incubator at 37° C. and 5% CO2. Following a 7 day-incubation, the level of rcDNA present in the inhibitor-treated wells was measured using a Quantigene 2.0 bDNA assay kit (Affymetrix, Santa Clara, Calif.) with HBV specific custom probe set and manufacturers instructions. Concurrently, the effect of compounds on cell viability was assessed using replicate plates, plated at a density of 5,000 cells/well and incubated for 4 days, to determine the ATP content as a measure of cell viability using the cell-titer glo reagent (CTG; Promega Corporation, Madison, Wis.) as per manufacturer's instructions. The plates were read using a Victor luminescence plate reader (PerkinElmer Model 1420 Multilabel counter) and the relative luminescence units (RLU) data generated from each well was calculated as % inhibition of the untreated control wells and analyzed using XL-Fit module in Microsoft Excel to determine EC50 and EC90 (bDNA) and CC50 (CTG) values using a 4-parameter curve fitting algorithm.\n(§4) Representative compounds of the invention were tested for their abilities to inhibit formation of relaxed circular DNA (rcDNA) in a HepDE19 assay, as described elsewhere herein.", "units": {"EC50": "µM"}}
{"smiles": "Cn1cc2c(c1C(=O)Nc1ccc(F)c(Cl)c1)CCC2NS(=O)(=O)C1CC1", "note": "(single isomer, unassigned) [Compound 14, N-(3-Chloro-4-fluorophenyl)-4-(cyclopropanesulfonamido)-2-methyl-2,4,5,6-tetrahydrocyclopenta [c]pyrrole-1-carboxamide]", "EC50": 0.07}
{"smiles": "Cn1cc2c(c1C(=O)Nc1ccc(F)c(Cl)c1)CCC2NC(=O)OCc1c[nH]nn1", "note": "(single isomer, unassigned) [Compound 59, (1H-1,2,3-Triazol-4-yl)methyl (1-((3-chloro-4-fluorophenyl)carbamoyl)-2-methyl-2,4,5,6-tetrahydrocyclopenta[c]pyrrol-4-yl)carbamate]", "EC50": 4.2}
{"smiles": "Cn1nnc(COC(=O)NC2CCc3c2cn(C)c3C(=O)Nc2ccc(F)c(Cl)c2)n1", "note": "(stereo not drawn) [Compound 142, (2-Methyl-1H-tetrazol-5-yl)methyl (1-((3-chloro-4-fluorophenyl)carbamoyl)-2-methyl-2,4,5,6-tetrahydrocyclopenta[c]pyrrol-4-yl)carbamate]", "EC50": 3.2}
{"smiles": "Cn1c(C(=O)Nc2ccc(F)c(Cl)c2)c2c(c1C(F)(F)F)C(NC(=O)OCc1cn[nH]n1)CC2", "note": "(single isomer, unassigned) [Compound 132, (2H-1,2,3-Triazol-4-yl)methyl (1-((3-chloro-4-fluorophenyl)carbamoyl)-2-methyl-3-(trifluoromethyl)-2,4,5,6-tetrahydrocyclopenta[c]pyrrol-4-yl)carbamate]", "EC50": 13}
{"smiles": "CCn1cc2c(c1C(=O)Nc1ccc(F)c(Cl)c1)CCC2NC(=O)OCc1ncn(C)n1", "note": "(single isomer, unassigned) [Compound 19, (1-Methyl-1H-1,2,4-triazol-3-yl)methyl (1-((3-chloro-4-fluorophenyl)carbamoyl)-2-ethyl-2,4,5,6-tetrahydrocyclopenta[c]pyrrol-4-yl)carbamate]", "EC50": 2.1}
{"smiles": "Cn1cc2c(c1C(=O)Nc1ccc(F)c(Cl)c1)CCC2NC(=O)OC[C@H]1CCC(=O)N1", "note": "(single isomer, unassigned) [Compound 121]", "EC50": 4}
{"smiles": "Cn1cc2c(c1C(=O)Nc1ccc(F)c(Cl)c1)CCCC2NS(=O)(=O)C1CC1", "note": "(single isomer, unassigned) [Compound 30, N-(3-Chloro-4-fluorophenyl)-4-(cyclopropanesulfonamido)-2-methyl-4,5,6,7-tetrahydro-2H-isoindole-1-carboxamide]", "EC50": 2.1}
{"smiles": "Cn1c(C(=O)Nc2ccc(F)c(Cl)c2)c2c(c1C(F)(F)F)C(NC(=O)OCc1cn[nH]n1)CC2", "note": "(single isomer, unassigned) [Compound 133, (2H-1,2,3-Triazol-4-yl)methyl (1-((3-chloro-4-fluorophenyl)carbamoyl)-2-methyl-3-(trifluoromethyl)-2,4,5,6-tetrahydrocyclopenta[c]pyrrol-4-yl)carbamate]", "EC50": 0.43}
{"smiles": "Cn1c(C(=O)Nc2ccc(F)c(Cl)c2)c2c(c1C(F)(F)F)C(NC(=O)OCc1nc[nH]n1)CC2", "note": "(single isomer, unassigned) [Compound 127, (1H-1,2,4-Triazol-3-yl)methyl (1-((3-chloro-4-fluorophenyl)carbamoyl)-2-methyl-3-(trifluoromethyl)-2,4,5,6-tetrahydrocyclopenta[c]pyrrol-4-yl)carbamate]", "EC50": 0.44}
{"smiles": "Cn1cc2c(c1C(=O)Nc1ccc(F)c(Cl)c1)CCC2NC(=O)OCc1cnco1", "note": "(single isomer, unassigned) [Compound 36, Oxazol-5-ylmethyl (1-((3-chloro-4-fluorophenyl)carbamoyl)-2-methyl-2,4,5,6-tetrahydrocyclopenta[c]pyrrol-4-yl)carbamate]", "EC50": 0.02}
{"tested_on": "HBV rcDNA", "assay": "HepDE19 assay with bDNA quantitation of HBV rcDNA", "type": "cell-based, hepatitis B virus", "settings": "Hepatitis B virus, HepDE19, 168 h, HepDE19 cells, Tet-free medium, 7 day-incubation, rcDNA measured by Quantigene 2.0 bDNA assay, top concentration 25 μM; read-out: DE-19 bDNA EC50", "procedure": "as §1, §2, §3, §4", "units": {"EC50": "µM"}}
{"smiles": "CNC(=O)NC1CCc2c1c[nH]c2C(=O)Nc1ccc(F)c(Cl)c1", "note": "(racemic) [Compound 8, N-(3-chloro-4-fluorophenyl)-4-(3-methylureido)-2,4,5,6-tetrahydrocyclopenta[c]pyrrole-1-carboxamide]", "EC50": 18}
{"smiles": "COC(=O)NC1CCc2c1c[nH]c2C(=O)Nc1ccc(F)c(Cl)c1", "note": "(stereo not drawn) [Compound 9, methyl 1-(3-chloro-4-fluorophenylcarbamoyl)-2,4,5,6-tetrahydrocyclopenta[c]pyrrol-4-ylcarbamate]", "EC50": 3}
{"smiles": "Cn1cc2c(c1C(=O)Nc1ccc(F)c(Cl)c1)CCC2NC(=O)OCC1(C(=O)O)CC(F)(F)C1", "note": "(racemic) [Compound 53, 1-((((1-((3-chloro-4-fluorophenyl)carbamoyl)-2-methyl-2,4,5,6-tetrahydrocyclopenta [c]pyrrol-4-yl)carbamoyl)oxy)methyl)-3,3-difluorocyclobutane-1-carboxylic acid]", "EC50": 2.7}
{"smiles": "Cn1cnc(COC(=O)NC2CCCc3c2c(Cl)n(C)c3C(=O)Nc2ccc(F)c(Cl)c2)n1", "note": "(single isomer, unassigned) [Compound 94, (1-Methyl-1H-1,2,4-triazol-3-yl)methyl (3-chloro-1-((3-chloro-4-fluorophenyl)carbamoyl)-2-methyl-4,5,6,7-tetrahydro-2H-isoindol-4-yl)carbamate]", "EC50": 0.44}
{"smiles": "Cn1ccc(COC(=O)NC2CCCc3c2cn(C)c3C(=O)Nc2ccc(F)c(Cl)c2)n1", "note": "(single isomer, unassigned) [Compound 31, (1-Methyl-1H-pyrazol-3-yl)methyl (1-((3-chloro-4-fluorophenyl)carbamoyl)-2-methyl-4,5,6,7-tetrahydro-2H-isoindol-4-yl)carbamate]", "EC50": 0.5}
{"smiles": "CCn1cc2c(c1C(=O)Nc1ccc(F)c(Cl)c1)CCC2NC(=O)C1CC1", "note": "(single isomer, unassigned) [Compound 17, N-(3-Chloro-4-fluorophenyl)-4-(cyclopropanecarboxamido)-2-ethyl-2,4,5,6-tetrahydrocyclopenta[c]pyrrole-1-carboxamide]", "EC50": 4.9}
{"smiles": "Cn1cnc(COC(=O)NC2CCc3c2cn(C)c3C(=O)Nc2ccnc(C(F)(F)F)c2)n1", "note": "(single isomer, unassigned) [Compound 73, (1-methyl-1H-1,2,4-triazol-3-yl)methyl (2-methyl-1-((2-(trifluoromethyl)pyridin-4-yl)carbamoyl)-2,4,5,6-tetrahydrocyclopenta[c]pyrrol-4-yl)carbamate]", "EC50": 0.54}
{"tested_on": "HBV rcDNA", "assay": "HepDE19 assay with bDNA quantitation of HBV rcDNA", "type": "cell-based, hepatitis B virus", "settings": "Hepatitis B virus, HepDE19, 168 h, read-out: DE-19 bDNA EC50 (μM), HepDE19 cells, Tet-free medium, 7 day-incubation, rcDNA measured by Quantigene 2.0 bDNA assay, top concentration 25 μM", "procedure": "as §1, §2, §3, §4", "units": {"EC50": "µM"}}
{"smiles": "COC(=O)NC1CCc2c1cn(C)c2C(=O)Nc1ccc(F)c(Cl)c1", "note": "(racemic) [Compound 1, methyl 1-(3-chloro-4-fluorophenylcarbamoyl)-2-methyl-2,4,5,6-tetrahydrocyclopenta[c]pyrrol-4-ylcarbamate]", "EC50": 0.09}
{"tested_on": "HBV rcDNA", "assay": "HepDE19 assay with bDNA quantitation of HBV rcDNA", "type": "cell-based, hepatitis B virus", "settings": "read-out: DE-19 bDNA EC50; HepDE19 cells, Tet-free medium, 7 day-incubation, rcDNA measured by Quantigene 2.0 bDNA assay, top concentration 25 μM", "procedure": "as §1, §2, §3, §4", "units": {"EC50": "µM"}}
{"smiles": "Cn1cc2c(c1C(=O)Nc1ccc(F)c(Cl)c1)CCC2NC(=O)OCc1nnnn1C", "note": "(single isomer, unassigned) [Compound 144, (1-Methyl-1H-tetrazol-5-yl)methyl(1-((3-chloro-4-fluorophenyl)carbamoyl)-2-methyl-2,4,5,6-tetrahydrocyclopenta[c]pyrrol-4-yl)carbamate]", "EC50": 0.06}
{"smiles": "COC(=O)NC1CCCCc2c1cn(C)c2C(=O)Nc1ccc(F)c(Cl)c1", "note": "(single isomer, unassigned) [Compound 85, Methyl (1-((3-chloro-4-fluorophenyl)carbamoyl)-2-methyl-2,4,5,6,7,8-hexahydrocyclohepta[c]pyrrol-4-yl)carbamate]", "EC50": 1.5}
{"smiles": "COC(=O)NC1CCc2c1cn(C)c2C(=O)Nc1ccc(F)c(Cl)c1", "note": "(single isomer, unassigned) [Compound 4, Methyl 1-(3-chloro-4-fluorophenylcarbamoyl)-2-methyl-2,4,5,6-tetrahydrocyclopenta[c] pyrrol-4-ylcarbamate]", "EC50": 0.05}
